Experiments:
P388 [1] = test: In vivo antitumor activity against mouse P388 cells at 5 mg/kg relative to control; format: functional
P388 [2] = test: In vivo antitumor activity against mouse P388 cells at 2 mg/kg relative to control; format: functional

SMILES	T/C (P388 [1]) [%]	T/C (P388 [2]) [%]
CCOC(=O)CC1(O)C=CC(=O)C=C1	120	
COC(=O)CC1(O)C=CC(=O)C=C1 [JACARANONE]		165

Reference: ChEMBL document CHEMBL1151351, “Antineoplastic Agents. 67. Senecio fendleri Gray” (1980)
